Values quoted from earlier work, collected in US9308174B2, “Lyophilized formulations of bendamustine hydrochloride” (CHEMI S.P.A., priority 2013, dated 2016).
Read-outs that look alike come from different tables or passages of the source.

Experiments:
[1] = water, 5° C.

## Cl.Cn1c(CCCC(=O)O)nc2cc(N(CCCl)CCCl)ccc21 [bendamustine hydrochloride, Bendamustine hydrochloride]
[1]; after 3 hours
  HP1 percentage: 0.86%
[1]; after 6 hours
  HP1 percentage: 3.81%
  appearance of the solution: formation of a precipitate
[1]; time=0
  HP1 percentage: 0.6%
Aqueous solution 0.25 mg/ml, room temperature
  time to 10% degradation of the active ingredient: 4.2 h
Solution at 4° C.
  time to lose 10% of its title (t90): 119.5 h
Solution at 23° C.
  time to lose 10% of its title (t90): 9.2 h
